Data from PubChem BioAssay AID248 (DTP/NCI, 2004).
Inconclusive results and toxic doses are left out. Rule as the data show it: active = T/C of 150% or more; inactive = T/C below 125%.

System: L1210 leukemia ip in BDF1 mice, survival T/C
Experiment: NCI In Vivo Anticancer Drug Screen. Data for tumor model L1210 Leukemia (intraperitoneal) in B6D2F1 (BDF1) mice
Details: endpoint: mean survival time, schedule: Q01DX005 (ip), vehicle: other, higher = longer survival
Summary of the method: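 Tumor was transplanted into mice, which were then dosed with test compound or vehicle alone. Survival was recorded for each group, and the treated figure was expressed relative to the control figure.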

Measured: T/C

CC(=O)OCC1OC(n2c(O)c(/C=C3\C=Nc4ccccc43)sc2=S)C(OC(C)=O)C(OC(C)=O)C1OC(C)=O (stereo not given)
inactive: dose: 12.5 mg/kg/injection 94 % of control | dose: 25.0 mg/kg/injection 91 % of control | dose: 50.0 mg/kg/injection 92 % of control | dose: 100.0 mg/kg/injection 111 % of control | dose: 200.0 mg/kg/injection 94 % of control
